These results are taken from ChEMBL document CHEMBL1201862, “PubChem BioAssay data set” (2004).

Some test systems named below: NCI-H460; T47D; Hs-578T; 786-0; NCI-H23; PC-3; UO-31; SK-MEL-5; ACHN; SK-OV-3; SW-620; Malme-3M; SK-MEL-2; A498; OVCAR-3; SNB-19; BT-549; M14; OVCAR-4; HOP-62.
Common to all, as to test: inhibition of tumour cell growth, NCI panel, 48 h

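Cells were grown in 96-well plates and exposed to each compound for 48 hours at five concentrations; endpoints were interpolated linearly between bracketing concentrations, or set to the highest concentration if not reached. GI50 marks 50% less growth.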 The source made the active and inactive calls. No stated cut-off is given here; in the data, active = GI50 up to about 1.1 µM and inactive = higher. Bounds are passed on as bounds.

On to `Sc1nc2c(c(-c3nc(S)nc4c3CCCCCCCCCC4)n1)CCCCCCCCCC2`, for which the GI50 with NCI-H460, in the test with T47D, in the test with Hs-578T, in the test with 786-0, in the test with NCI-H23 and in the test with PC-3 was > 100 µM (inactive) in each case. For the same compound, the GI50 with UO-31, in the test on SK-MEL-5, in the test on ACHN, in the test with SK-OV-3, with SW-620 and in the test on Malme-3M was > 100 µM (inactive) each time. Besides, the GI50 with SK-MEL-2, in the test on A498, in the test with OVCAR-3, in the test on SNB-19, with BT-549 and in the test on M14 was > 100 µM (inactive) each time. Besides, the GI50 with OVCAR-4 and with HOP-62 was > 100 µM (inactive) in each case.
For the compound `CCOP(C)(=O)/C(Cc1ccc(OC)c(OC)c1)=N\O` (stereo not given), the GI50 with NCI-H460, in the test on T47D, in the test on Hs-578T, in the test on 786-0, with NCI-H23 and in the test on PC-3 was > 100 µM (inactive) throughout. Also, the GI50 in the test on UO-31, with SK-MEL-5, in the test with ACHN, in the test with SK-OV-3, in the test on SW-620 and with Malme-3M was > 100 µM (inactive) throughout. The GI50 in the test on SK-MEL-2, with A498, with OVCAR-3, in the test on SNB-19, with BT-549 and in the test with M14 was > 100 µM (inactive) throughout. Also, the GI50 in the test on OVCAR-4 and in the test on HOP-62 was > 100 µM (inactive) each time.
In the case of `C[C@]12CC[C@@H]3c4ccc(OCC(=O)O)cc4CC[C@H]3[C@@H]1CCC2=O`, the GI50 in the test with NCI-H460, in the test with T47D, with Hs-578T, with 786-0, with NCI-H23 and with PC-3 was > 100 µM (inactive) each time. The GI50 in the test with UO-31, in the test with SK-MEL-5, with ACHN, in the test with SK-OV-3, in the test on SW-620 and in the test with Malme-3M was > 100 µM (inactive) in each case. The GI50 with SK-MEL-2, in the test on A498, in the test with OVCAR-3, in the test with SNB-19, in the test with BT-549 and in the test on M14 was > 100 µM (inactive) each time. The GI50 in the test on OVCAR-4 and with HOP-62 was > 100 µM (inactive) each time.
As to `C=C(CN(C)C)C(=O)c1ccccc1OC`, the GI50 was 38.1 µM (inactive) in the test on NCI-H460; 15 µM (inactive) in the test with T47D; 20.7 µM (inactive) in the test on Hs-578T; 13.9 µM (inactive) in the test with 786-0; 17.9 µM (inactive) in the test with NCI-H23; 17.5 µM (inactive) in the test on PC-3. The GI50 with UO-31 was 16.4 µM (inactive); in the test on SK-MEL-5 it was 17.1 µM (inactive); in the test with ACHN it was 14.5 µM (inactive); in the test on SK-OV-3, 47.5 µM (inactive); in the test on SW-620, 4.31 µM (inactive); with Malme-3M, 7.66 µM (inactive). In addition, the GI50 in the test on SK-MEL-2 is 14.4 µM (inactive); with A498, 28.4 µM (inactive); in the test on OVCAR-3 it was 16 µM (inactive); in the test on SNB-19 it was 44.4 µM (inactive); in the test with BT-549, 17.4 µM (inactive); with M14 it was 12 µM (inactive). In addition, the GI50 with OVCAR-4 is 20.6 µM (inactive); in the test with HOP-62 it was > 52.8 µM (inactive).
Turning to `CCOC(=O)C1C(=O)CC(O)(c2ccccc2)C(C(=O)OCC)C1c1ccc(N(C)C)cc1` (stereo not given), the GI50 is 20 µM (inactive) in the test on NCI-H460; 27.6 µM (inactive) in the test on T47D; 2.1 µM (inactive) in the test on Hs-578T; 26.7 µM (inactive) in the test with 786-0; > 45.7 µM (inactive) in the test with NCI-H23; 18.3 µM (inactive) in the test on PC-3. Further, the GI50 is 49.8 µM (inactive) with UO-31; 22.3 µM (inactive) with SK-MEL-5; 50.4 µM (inactive) in the test on ACHN; 18.2 µM (inactive) in the test with SK-OV-3; 19.8 µM (inactive) in the test on SW-620; 18.2 µM (inactive) with Malme-3M. Besides, the GI50 in the test with SK-MEL-2 was 33 µM (inactive); with A498 it was 31.6 µM (inactive); with OVCAR-3, 24 µM (inactive); with SNB-19, 29.9 µM (inactive); with BT-549, 28.6 µM (inactive); in the test with M14, 35.6 µM (inactive). In addition, the results for the GI50 with OVCAR-4 and with HOP-62 were 59.2 µM (inactive) and 30.8 µM (inactive), respectively.
Regarding `NC(=O)c1ccc(N)nc1` [6-AMINONICOTINAMIDE], the GI50 was 5.16 µM (inactive) in the test on NCI-H460; > 255 µM (inactive) in the test on T47D; 6.17 µM (inactive) with Hs-578T; 3.54 µM (inactive) in the test with 786-0; 9.98 µM (inactive) with NCI-H23; 29.7 µM (inactive) in the test with PC-3. The GI50 in the test with UO-31 was 29.4 µM (inactive); in the test on SK-MEL-5 it was 0.759 µM (active); in the test with ACHN it was 54.3 µM (inactive); with SK-OV-3, > 400 µM (inactive); with SW-620, 82 µM (inactive); in the test with Malme-3M it was 33.2 µM (inactive). Further, the GI50 is 124 µM (inactive) with SK-MEL-2; 14.9 µM (inactive) in the test on A498; 67.8 µM (inactive) in the test on OVCAR-3; 14.7 µM (inactive) in the test on SNB-19; 14.1 µM (inactive) with BT-549; 6.24 µM (inactive) in the test on M14. Besides, the GI50 in the test with OVCAR-4 is 7.01 µM (inactive); in the test with HOP-62 it was 12 µM (inactive).
Turning to `CC(=O)OC(C)(C)/C=C/C(=O)[C@](C)(O)[C@H]1[C@H](O)C[C@@]2(C)[C@@H]3CC=C4[C@@H](C=C(O)C(=O)C4(C)C)[C@]3(C)C(=O)C[C@]12C` [CUCURBITACIN E], the GI50 in the test on NCI-H460 was 0.0222 µM (active); in the test on T47D, 0.217 µM (active); in the test with Hs-578T, 0.0473 µM (active); in the test with 786-0 it was 0.0339 µM (active); in the test on NCI-H23, 0.055 µM (active); in the test on PC-3, 0.259 µM (active). The GI50 with UO-31 was 0.0235 µM (active); in the test on SK-MEL-5, 0.0406 µM (active); in the test on ACHN it was 0.0179 µM (active); in the test with SK-OV-3, 0.0436 µM (active); with SW-620, 0.0438 µM (active); in the test on Malme-3M, 0.0366 µM (active). Further, the GI50 was 0.0139 µM (active) with SK-MEL-2; 0.0247 µM (active) in the test on A498; 0.0459 µM (active) in the test on OVCAR-3; 0.057 µM (active) in the test on SNB-19; 0.027 µM (active) with BT-549; 0.0375 µM (active) in the test on M14. Besides, the figures for the GI50 in the test with OVCAR-4 and with HOP-62 were 0.0305 µM (active) and 0.0408 µM (active), respectively.
Turning to `O=P(O)(NCCCl)NCCCl` [PALIFOSFAMIDE], the GI50 is 28.8 µM (inactive) with NCI-H460; > 100 µM (inactive) in the test with T47D; > 100 µM (inactive) in the test with Hs-578T; > 67.8 µM (inactive) with 786-0; 64.6 µM (inactive) in the test on NCI-H23; > 100 µM (inactive) with PC-3. Moreover, the GI50 with UO-31 was > 100 µM (inactive); in the test on SK-MEL-5 it was > 10 µM (inactive); with ACHN, 39.3 µM (inactive); in the test on SK-OV-3 it was > 55.8 µM (inactive); with SW-620, > 10 µM (inactive); in the test on Malme-3M, > 100 µM (inactive). Moreover, the GI50 in the test on SK-MEL-2 was > 100 µM (inactive); with A498, > 100 µM (inactive); with OVCAR-3, > 10 µM (inactive); in the test on SNB-19, > 10 µM (inactive); in the test with BT-549 it was > 100 µM (inactive); in the test on M14 it was > 100 µM (inactive). In addition, the figures for the GI50 with OVCAR-4 and in the test with HOP-62 were > 100 µM (inactive) and 65.6 µM (inactive), respectively.
